Reference: US12286405B2, “Scalable synthesis of dual-target inhibitor of cannabinoid-1 receptor and inducible nitric oxide synthase” (THE UNITED STATES OF AMERICA, AS REPRESENTED BY THE …, priority 2019, dated 2025)
≈ marks a conversion by molar mass, not a printed value.

Legend:
CB1R = CB1R (Homo sapiens, UniProt P21554); conditions: in vivo; mediated by the CB1R antagonism; cited from earlier work
[1] = tested on: animal models of fibrosis; conditions: mediated by iNOS inhibition and CB1R antagonism; cited from earlier work
[2] = solubility of rac-1 in organic solvent (dichloromethane); format: physicochemical; conditions: organic solvent or mixture
Excerpt: To overcome this obstacle, the present inventors discovered an enantioselective approach to (S,1E,NE)-N-(1-aminoethylidene)-3-(4-chlorophenyl)-4-phenyl-N′-((4-(trifluoromethyl)phenyl)sulfonyl)-4,5-dihydro-1H-pyrazole-1-carboximidamide (S)-1 in high optical purity.

Sequence of CB1R (P21554 whole entry): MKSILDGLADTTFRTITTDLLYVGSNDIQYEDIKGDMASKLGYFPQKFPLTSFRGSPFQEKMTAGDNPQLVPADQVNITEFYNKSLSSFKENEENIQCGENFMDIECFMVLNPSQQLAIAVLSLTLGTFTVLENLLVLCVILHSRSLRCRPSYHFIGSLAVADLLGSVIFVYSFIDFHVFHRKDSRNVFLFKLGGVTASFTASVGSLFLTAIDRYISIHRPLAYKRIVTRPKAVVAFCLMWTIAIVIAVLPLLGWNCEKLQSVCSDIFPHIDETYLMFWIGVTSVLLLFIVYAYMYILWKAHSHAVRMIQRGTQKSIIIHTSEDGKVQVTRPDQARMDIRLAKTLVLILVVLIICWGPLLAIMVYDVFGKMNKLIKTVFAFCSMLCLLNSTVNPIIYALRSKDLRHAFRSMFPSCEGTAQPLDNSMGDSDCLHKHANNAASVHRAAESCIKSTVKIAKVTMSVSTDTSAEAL

Row | solubility [2] | SMILES | food intake (CB1R) | antifibrotic effect [1]
1 |  | C/C(N)=N\C(=N\S(=O)(=O)c1ccc(C(F)(F)F)cc1)N1C[C@H](c2ccccc2)C(c2ccc(Cl)cc2)=N1 [(S)-1, (S,1E,NE)-N-(1-aminoethylidene)-3-(4-chlorophenyl)-4-phenyl-N′-((4-(trifluoromethyl)phenyl)sulfonyl)-4,5-dihydro-1H-pyrazole-1-carboximidamide] | reduction of food intake | antifibrotic effect
2 | ~1000 µg/mL (≈ 1820 µM) | C/C(N)=N\C(=N/S(=O)(=O)c1ccc(C(F)(F)F)cc1)N1CC(c2ccccc2)C(c2ccc(Cl)cc2)=N1 (racemic) [rac-1, (1E,NE)-N-(1-aminoethylidene)-3-(4-chlorophenyl)-4-phenyl-N′-((4-(trifluoromethyl)phenyl)sulfonyl)-4,5-dihydro-1H-pyrazole-1-carboximidamide] |  | 
